Converted amounts (≈) assume the structure as drawn. Like-named read-outs stand apart in the source and are kept apart here.
What was measured:
[1] = test system: Vancomycin resistant Enterococcus faecium NR-31909 (VRE); assay: Antibacterial MIC assay, serial dilution; assay type: cell-based; settings: for Selectivity index (CC50/MIC) VRE NR-31909: CC50 Vero cells / MIC; for MIC: Enterococcus faecium, VRE, 24 h, read-out: MIC Vancomycin resistant Enterococcus faecium NR-31909 (VRE)
Description: (§1) Media and solutions were autoclaved or sterile filtered prior to use and mani pulations were carri ed out in a laminar flow hood. Antibacterial t esting was performed in polypropylene 96-well flat bottom plates. The minimal inhibitory concentration of blasticidin S (1) hydrochloride, methyl ester (3) trihydrochloride, P10 (2) tri-T FA , phenet hyl amide (4) tri -T FA , an d blastimidines M 19– 22, A, 29–32, P 37–40, and C 43–46 (salt forms as described in the te xt) were assessed against Staphylococcus aureus ΔNorA, S. aureus ATCC 6538P, methicillin-resistant S. aureus (MRSA) ATCC 43300, Enterococcus faecalis ATCC 29212, vancomycin- resistant Enterococcus, Klebsiella pneumoniae ATCC 29665, Pseudomonas aeruginosa,and Acinetobacter baumannii ATCC 17978 using serial dilutions. Doxycycline (Gold Bio) as a positive control and the vehicle as a negative control. Stock solutions of each compound were prepared at 2.56 mg/mL in 50% DMSO/water and serially diluted in 50% DMSO/water to create master plates. From the master plates, 10 μ L o f each dilution was applied to test plates using a Bravo automated liquid transfer system (Agilent).
(§2) Bacteria previously grown overnight (37 °C, 120–200 RPM), in LB broth were diluted to an OD600 of 0.05 in cation-adjusted Mueller-Hinton broth (CAMHB), grown to an OD600 of ~0.5, and diluted to an OD600 of 0.004 in CAMHB . These diluted cultures were applied to the test plates (190 μL per test well) resulting in final concentrations of the test compounds of 128–1 μg/ m L.
(§3) Growth controls (wells with inoculated media but no vehicle or test compounds) were included to assess any potential toxicity from the vehicle. Th e plates were in cubated at 37 °C for 16–18 h, except fo r VRE and E. faecalis, which w ere in cub ated at 37 °C fo r 24 h. Inh ibition was determined by measuring the optical density at 600 nm (OD60 0) with a Cytation 3 pl ate read er (BioTek). The optical density measurem ents were no rmalized to the positive and negative controls and the vehicle and growth controls were compared and found to b e indistinguishable, indicating no toxicity from […]
(§4) the vehicle used. The MIC was the lowest concentration that inhibited >90% of growth. Two biological replicates were performed in duplicate. MIC values are reported as a range from […]

[2] = test system: Klebsiella pneumoniae ATCC 29665; assay: Antibacterial MIC assay, serial dilution; assay type: cell-based; settings: for Selectivity index (CC50/MIC) K. pneumoniae: CC50 Vero cells / MIC; for MIC: Klebsiella pneumoniae, ATCC29665, range from biological replicates, read-out: MIC K. pneumoniae ATCC-29665
Description: as §1, §2, §3, §4

[3] = test system: Acinetobacter baumannii ATCC 17978; assay: Antibacterial MIC assay, serial dilution; assay type: cell-based; settings: ATCC17978, range from biological replicates
Description: as §1, §2, §3, §4

[4] = test system: Enterococcus faecalis ATCC 29212; assay: Antibacterial MIC assay, serial dilution; assay type: cell-based; settings: for Selectivity index (CC50/MIC) E. faecalis 29212: CC50 Vero cells / MIC; for MIC: Enterococcus faecalis, ATCC 29112 / ATCC 29212, 24 h, read-out: MIC E. faecalis ATCC 29112
Description: as §1, §2, §3, §4

[5] = test system: Pseudomonas aeruginosa; assay: Antibacterial MIC assay, serial dilution; assay type: cell-based; settings: for Selectivity index (CC50/MIC) P. aeruginosa: CC50 Vero cells / MIC; for MIC: Pseudomonas aeruginosa, range from biological replicates, read-out: MIC P. aeruginosa
Description: as §1, §2, §3, §4

[6] = test system: Vancomycin resistant E. faecalis NR-31972 (VRE); assay: Antibacterial MIC assay, serial dilution; assay type: cell-based, Enterococcus faecalis; settings: for Selectivity index (CC50/MIC) VRE NR-31972: CC50 Vero cells / MIC; for MIC: Enterococcus faecalis, VRE, 24 h, read-out: MIC Vancomycin resistant E. faecalis NR-31972 (VRE)
Description: as §1, §2, §3, §4

[7] = test system: Methicillin resistant Staphylococcus epidermidis (MRSE) ATCC 35984 NRS101; assay: Antibacterial MIC assay, serial dilution; assay type: cell-based; settings: for Selectivity index (CC50/MIC) MRSE 35984: CC50 Vero cells / MIC; for MIC: Staphylococcus epidermidis, read-out: MIC Methicillin resistant Staphylococcus epidermidis (MRSE) ATCC 35984 NRS101
[8] = test system: S. aureus ΔNorA; assay: Antibacterial MIC assay, serial dilution; assay type: cell-based, Staphylococcus aureus; settings: for Selectivity index (CC50/MIC) S. aureus ΔNorA: CC50 Vero cells / MIC; for MIC: Staphylococcus aureus, read-out: MIC S. aureus ∆NorA
Description: as §1, §2, §3, §4

[9] = test system: MRSA ATCC 43300; assay: Antibacterial MIC assay, serial dilution; assay type: cell-based, Staphylococcus aureus; settings: for Selectivity index (CC50/MIC) MRSA 43300: CC50 Vero cells / MIC; for MIC: Staphylococcus aureus, read-out: MIC MRSA ATCC 43300
Description: as §1, §2, §3, §4

[10] = test system: S. aureus ATCC 6538P; assay: Antibacterial MIC assay, serial dilution; assay type: cell-based, Staphylococcus aureus; settings: for Selectivity index (CC50/MIC) S. aureus 6538P: CC50 Vero cells / MIC; for MIC: Staphylococcus aureus, ATCC 6538P / ATCC 6539P, read-out: MIC S. aureus ATCC 6539P
Description: as §1, §2, §3, §4

[11] = test system: Methicillin resistant S. aureus (MRSA) USA300; assay: Antibacterial MIC assay, serial dilution; assay type: cell-based, Staphylococcus aureus; settings: for Selectivity index (CC50/MIC) MRSA USA300: CC50 Vero cells / MIC; for MIC: Staphylococcus aureus, read-out: MIC Methicillin resistant S. aureus (MRSA) USA300
[12] = Cytotoxicity assay (MTS/PMS); assay type: cell-based; settings: monkey, 24 h treatment, MTS/PMS, average of three biological replicates, read-out: CC50 against Vero cells
Description: The potential cytotoxic eff ect of the test compounds was investigated using Vero cells (monkey kidney epitheli al cells) following est ablished protocols.3 Briefly, Vero cells were plated into 96-well plates supplemented with Dulbecco's Modified Eagle Medium (DMEM) containing 10% fetal bovine serum (FBS). The cells were placed in a humidified 37 °C environment for incubation with 5% CO₂ for 24 h to allow proper adherence and growth. Following the incubation period, the culture medium was replaced with fresh DMEM containing serial dilutions of the test compounds, while the v ehicle alon e w as used as a negative control. The treated cells were incubated for an additional 24 h. To assess cell viability, the MTS/PMS reagent was added to each well and incubat ed for 4 h. A microplate reader (S ynergy H1, BioTek, USA) was used to m easure absorbance at 490 nm. Al l experiments wer e cond ucted usingthree biologi cal replicates .
Ta b l e S2. CC50 valuesa (µg/mL) against Vero cells […]
aValues at which the cell viability (normalized to vehicle control) was 50%. […]

[13] = test system: Escherichia coli BAA-2452; assay: Antibacterial MIC assay, serial dilution; assay type: cell-based; settings: BAA2452, read-out: MIC Escherichia coli BAA-2452
[14] = Vero cells (monkey kidney epithelial cells)

| Compound | Selectivity index (CC50/MIC) VRE NR-31909 [1] | MIC [1] | Selectivity index (CC50/MIC) K. pneumoniae [2] | MIC [2] | MIC [3] | Selectivity index (CC50/MIC) E. faecalis 29212 [4] | MIC [4] | Selectivity index (CC50/MIC) P. aeruginosa [5] | MIC [5] | Selectivity index (CC50/MIC) VRE NR-31972 [6] | MIC [6] | Selectivity index (CC50/MIC) MRSE 35984 [7] | MIC [7] | Selectivity index (CC50/MIC) S. aureus ΔNorA [8] | MIC [8] | Selectivity index (CC50/MIC) MRSA 43300 [9] | MIC [9] | Selectivity index (CC50/MIC) S. aureus 6538P [10] | MIC [10] | Selectivity index (CC50/MIC) MRSA USA300 [11] | other results |
| --- | --- | --- | --- | --- | --- | --- | --- | --- | --- | --- | --- | --- | --- | --- | --- | --- | --- | --- | --- | --- | --- |
| CN(CC[C@H](N)CC(=O)N[C@H]1C=C[C@H](n2ccc(NC(=O)c3ccc(NC(=O)[C@@](C)(N)CO)cc3)nc2=O)O[C@@H]1C(N)=O)C(=N)N [Blastimidine A5] | 2.0 | 32 µg/mL (≈ 49.9 µM) | 2.0 | 32 µg/mL (≈ 49.9 µM) | > 128 µg/mL | 1.0 | 64 µg/mL (≈ 99.7 µM) | <0.5 | > 128 µg/mL | <0.5 | > 128 µg/mL | 0.5 | 128 µg/mL (≈ 199 µM) | 0.5 | 128 µg/mL (≈ 199 µM) | 0.5 | 128 µg/mL (≈ 199 µM) | 1.0 | 64 µg/mL (≈ 99.7 µM) | 0.5 | MIC [11]: 128 µg/mL (≈ 199 µM); CC50 at 24 h [12, 14]: 65 µg/mL (≈ 101 µM); MIC [13]: 32 µg/mL (≈ 49.9 µM) |
| CN(CC[C@H](N)CC(=O)N[C@H]1C=C[C@H](n2ccc(N)nc2=O)O[C@@H]1C(=O)O)C(=N)N [Blastimidine C1, blasticidin S] | 0.1 | 128 µg/mL (≈ 303 µM) | 0.1 | 128 µg/mL (≈ 303 µM) | > 128 µg/mL | 0.6 | 32 µg/mL (≈ 75.7 µM) | <0.1 | > 128 µg/mL | 0.1 | 128 µg/mL (≈ 303 µM) | <0.1 | > 128 µg/mL | <0.1 | > 128 µg/mL | <0.1 | > 128 µg/mL | <0.1 | > 128 µg/mL | 0.1 | MIC [11]: 128 µg/mL (≈ 303 µM); CC50 at 24 h [12]: 18 µg/mL (≈ 42.6 µM); MIC [13]: 64 µg/mL (≈ 151 µM) |
| CN(CC[C@H](N)CC(=O)N[C@H]1C=C[C@H](n2ccc(NC(=O)c3ccc(N)cc3)nc2=O)O[C@@H]1C(=O)O)C(=N)N [Blastimidine C2] | 1.0 | 64 µg/mL (≈ 118 µM) | 1.0 | 64 µg/mL (≈ 118 µM) | > 128 µg/mL | 1.0 | 64 µg/mL (≈ 118 µM) | <0.5 | > 128 µg/mL | 0.5 | 128 µg/mL (≈ 236 µM) | <0.5 | > 128 µg/mL | <0.5 | > 128 µg/mL | <0.5 | > 128 µg/mL | <0.5 | > 128 µg/mL | 0.5 | MIC [11]: 128 µg/mL (≈ 236 µM); CC50 at 24 h [12, 14]: 66 µg/mL (≈ 122 µM); MIC [13]: 64 µg/mL (≈ 118 µM) |
| CNc1ccc(C(=O)Nc2ccn([C@H]3C=C[C@H](NC(=O)C[C@@H](N)CCN(C)C(=N)N)[C@@H](C(=O)O)O3)c(=O)n2)cc1 [Blastimidine C3] | 2.2 | 64 µg/mL (≈ 115 µM) | 1.7 | 64 to 128 µg/mL (≈ 115 to 230 µM) | > 128 µg/mL | 2.2 | 64 µg/mL (≈ 115 µM) | <1.1 | > 128 µg/mL | 1.1 | 128 µg/mL (≈ 230 µM) | <1.1 | > 128 µg/mL | <1.1 | > 128 µg/mL | <1.1 | > 128 µg/mL | <1.1 | > 128 µg/mL | 1.1 | MIC [11]: 128 µg/mL (≈ 230 µM); CC50 at 24 h [12, 14]: 142 µg/mL (≈ 256 µM); MIC [13]: > 128 µg/mL |
| CN(CC[C@H](N)CC(=O)N[C@H]1C=C[C@H](n2ccc(NC(=O)c3ccc(NC(=O)[C@@](C)(N)CO)cc3)nc2=O)O[C@@H]1C(=O)O)C(=N)N [Blastimidine C5] | <1.4 | > 128 µg/mL | <1.4 | > 128 µg/mL | > 128 µg/mL | <1.4 | > 128 µg/mL | <1.4 | > 128 µg/mL | <1.4 | > 128 µg/mL | <1.4 | > 128 µg/mL | <1.4 | > 128 µg/mL | <1.4 | > 128 µg/mL | <1.4 | > 128 µg/mL | <1.4 | MIC [11]: > 128 µg/mL; CC50 at 24 h [12, 14]: 177 µg/mL (≈ 275 µM); MIC [13]: > 128 µg/mL |
| COC(=O)[C@H]1O[C@@H](n2ccc(N)nc2=O)C=C[C@@H]1NC(=O)C[C@@H](N)CCN(C)C(=N)N [Blastimidine M1, blasticidin S methyl ester] | 0.4 | 64 µg/mL (≈ 147 µM) | 0.4 | 64 µg/mL (≈ 147 µM) | 128 µg/mL (≈ 293 µM) | 1.8 | 16 µg/mL (≈ 36.7 µM) | 0.4 | 64 µg/mL (≈ 147 µM) | 0.9 | 32 µg/mL (≈ 73.3 µM) | 1.8 | 16 µg/mL (≈ 36.7 µM) | 0.3 | 64 to 128 µg/mL (≈ 147 to 293 µM) | 1.3 | 16 to 32 µg/mL (≈ 36.7 to 73.3 µM) | 1.3 | 16 to 32 µg/mL (≈ 36.7 to 73.3 µM) | 3.6 | MIC [11]: 8 µg/mL (≈ 18.3 µM); CC50 at 24 h [12, 14]: 28 µg/mL (≈ 64.2 µM); MIC [13]: 8 µg/mL (≈ 18.3 µM) |
